In PubChem BioAssay (NCI):
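Values below derive from 48-hour exposures of cells grown in 96-well plates, with endpoints linearly interpolated between the two concentrations bracketing the appropriate inhibition level. The concentration for 50% growth inhibition is given as GI50. At the TGI there is no net growth.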

Tests used:
Assay in all cases: NCI anticancer screen, dose series, 48 h
HCT-15 colon = system: HCT-15 colon
UO-31 renal = system: UO-31 renal
ACHN renal = system: ACHN renal
HT29 colon = system: HT29 colon
OVCAR-4 ovarian = system: OVCAR-4 ovarian
SNB-19 CNS = system: SNB-19 CNS
IGROV1 ovarian = system: IGROV1 ovarian
U251 CNS = system: U251 CNS
RXF 393 renal = system: RXF 393 renal
DU-145 prostate = system: DU-145 prostate
MOLT-4 leukemia = system: MOLT-4 leukemia
NCI/ADR-RES ovarian = system: NCI/ADR-RES ovarian
T-47D breast = system: T-47D breast
UACC-257 melanoma = system: UACC-257 melanoma
HCT-116 colon = system: HCT-116 colon
MDA-MB-435 = system: MDA-MB-435
HS 578T breast = system: HS 578T breast
BT-549 breast = system: BT-549 breast
MCF7 breast = system: MCF7 breast
RPMI-8226 leukemia = system: RPMI-8226 leukemia
SF-268 CNS = system: SF-268 CNS
SK-OV-3 ovarian = system: SK-OV-3 ovarian
UACC-62 melanoma = system: UACC-62 melanoma
MDA-MB-231 breast = system: MDA-MB-231 breast
NCI-H226 lung = system: NCI-H226 lung
TK-10 renal = system: TK-10 renal
SF-295 CNS = system: SF-295 CNS
SN12C renal = system: SN12C renal
SK-MEL-5 melanoma = system: SK-MEL-5 melanoma
CCRF-CEM leukemia = system: CCRF-CEM leukemia
EKVX NSCLC = system: EKVX NSCLC
CAKI-1 renal = system: CAKI-1 renal
K-562 leukemia = system: K-562 leukemia
OVCAR-8 ovarian = system: OVCAR-8 ovarian
HOP-62 NSCLC = system: HOP-62 NSCLC
SF-539 CNS = system: SF-539 CNS
PC-3 prostate = system: PC-3 prostate
A498 renal = system: A498 renal
NCI-H522 lung = system: NCI-H522 lung
NCI-H23 lung = system: NCI-H23 lung
786-0 renal = system: 786-0 renal
SNB-75 CNS = system: SNB-75 CNS
HL-60(TB) leukemia = system: HL-60(TB) leukemia
HOP-92 NSCLC = system: HOP-92 NSCLC
SR leukemia = system: SR leukemia
HCC-2998 colon = system: HCC-2998 colon
KM12 colon = system: KM12 colon
COLO 205 colon = system: COLO 205 colon
A549 NSCLC = system: A549 NSCLC
SK-MEL-2 melanoma = system: SK-MEL-2 melanoma
SK-MEL-28 melanoma = system: SK-MEL-28 melanoma
M14 melanoma = system: M14 melanoma
OVCAR-5 ovarian = system: OVCAR-5 ovarian
MALME-3M melanoma = system: MALME-3M melanoma
LOX IMVI melanoma = system: LOX IMVI melanoma
NCI-H460 lung = system: NCI-H460 lung
SW-620 colon = system: SW-620 colon

## Oc1ccc(CSc2nnc(-c3ccc(Oc4ccccc4)cc3)o2)c2cccnc12
HCT-15 colon
  GI50: 0.368 µM
  TGI: > 100 µM
UO-31 renal
  GI50: 0.373 µM
  TGI: 2.38 µM
ACHN renal
  GI50: 0.565 µM
  TGI: 2.14 µM
HT29 colon
  GI50: > 100 µM
  TGI: > 100 µM
OVCAR-4 ovarian
  GI50: 1.77 µM
  TGI: 8.01 µM
SNB-19 CNS
  GI50: 0.421 µM
  TGI: > 100 µM
IGROV1 ovarian
  GI50: 0.645 µM
  TGI: > 100 µM
U251 CNS
  GI50: 0.46 µM
  TGI: 2.7 µM
RXF 393 renal
  GI50: 3.55 µM
  TGI: > 100 µM
DU-145 prostate
  GI50: 3.27 µM
  TGI: > 100 µM
MOLT-4 leukemia
  GI50: 1.28 µM
  TGI: > 100 µM
NCI/ADR-RES ovarian
  GI50: 0.489 µM
  TGI: 84.6 µM
T-47D breast
  GI50: 2.17 µM
  TGI: 9.12 µM
UACC-257 melanoma
  GI50: 15.7 µM
  TGI: > 100 µM
HCT-116 colon
  GI50: 0.42 µM
  TGI: 4.4 µM
MDA-MB-435
  GI50: 0.713 µM
  TGI: > 100 µM
HS 578T breast
  GI50: 0.612 µM
  TGI: 27.4 µM
BT-549 breast
  GI50: 0.905 µM
  TGI: > 100 µM
MCF7 breast
  GI50: 0.497 µM
  TGI: > 100 µM
RPMI-8226 leukemia
  GI50: 0.458 µM
  TGI: > 100 µM
SF-268 CNS
  GI50: 0.659 µM
  TGI: > 100 µM
SK-OV-3 ovarian
  GI50: 1.92 µM
  TGI: 21.8 µM
UACC-62 melanoma
  GI50: 2.41 µM
  TGI: > 100 µM
MDA-MB-231 breast
  GI50: 1.49 µM
  TGI: 79.9 µM
NCI-H226 lung
  GI50: 15.3 µM
  TGI: > 100 µM
TK-10 renal
  GI50: 2.45 µM
  TGI: 69.8 µM
SF-295 CNS
  GI50: 0.877 µM
  TGI: 7.49 µM
SN12C renal
  GI50: 2.13 µM
  TGI: > 100 µM
SK-MEL-5 melanoma
  GI50: 1.27 µM
  TGI: > 100 µM
CCRF-CEM leukemia
  GI50: 0.498 µM
  TGI: > 100 µM
EKVX NSCLC
  GI50: 0.515 µM
  TGI: > 100 µM
CAKI-1 renal
  GI50: 1.88 µM
  TGI: > 100 µM
K-562 leukemia
  GI50: 0.368 µM
  TGI: > 100 µM
OVCAR-8 ovarian
  GI50: 0.633 µM
  TGI: > 100 µM
HOP-62 NSCLC
  GI50: 0.682 µM
  TGI: 9.85 µM
SF-539 CNS
  GI50: 0.689 µM
  TGI: 55.5 µM
PC-3 prostate
  GI50: 0.561 µM
  TGI: > 100 µM
A498 renal
  GI50: 8.41 µM
  TGI: > 100 µM
NCI-H522 lung
  GI50: 4.99 µM
  TGI: > 100 µM
NCI-H23 lung
  GI50: 0.739 µM
  TGI: 44.9 µM
786-0 renal
  GI50: 1.02 µM
  TGI: 5.88 µM
SNB-75 CNS
  GI50: 0.595 µM
  TGI: 3.92 µM
HL-60(TB) leukemia
  GI50: 0.668 µM
  TGI: > 100 µM
HOP-92 NSCLC
  GI50: 1.41 µM
  TGI: 24.9 µM
SR leukemia
  GI50: 0.37 µM
  TGI: > 100 µM
HCC-2998 colon
  GI50: 1.04 µM
  TGI: > 100 µM
KM12 colon
  GI50: 2.65 µM
  TGI: > 100 µM
COLO 205 colon
  GI50: > 100 µM
  TGI: > 100 µM
A549 NSCLC
  GI50: 1.68 µM
  TGI: > 100 µM
SK-MEL-2 melanoma
  GI50: 3.56 µM
  TGI: 90.2 µM
SK-MEL-28 melanoma
  GI50: 4.8 µM
  TGI: > 100 µM
M14 melanoma
  GI50: 0.621 µM
  TGI: > 100 µM
OVCAR-5 ovarian
  GI50: 8.02 µM
  TGI: > 100 µM
MALME-3M melanoma
  GI50: 4.54 µM
  TGI: > 100 µM

## Oc1ccc(CSc2nnc(-c3ccccc3)n2-c2ccccc2)c2cccnc12
HCT-15 colon
  GI50: 0.348 µM
  TGI: > 100 µM
UO-31 renal
  GI50: 0.315 µM
  TGI: 1.56 µM
ACHN renal
  GI50: 0.364 µM
  TGI: 1.29 µM
HT29 colon
  GI50: 3.96 µM
  TGI: > 100 µM
OVCAR-4 ovarian
  GI50: 0.706 µM
  TGI: 13 µM
SNB-19 CNS
  GI50: 0.395 µM
  TGI: 14.2 µM
IGROV1 ovarian
  GI50: 0.557 µM
  TGI: 13 µM
U251 CNS
  GI50: 0.298 µM
  TGI: 9.46 µM
RXF 393 renal
  GI50: 0.887 µM
  TGI: 6.12 µM
DU-145 prostate
  GI50: 0.605 µM
  TGI: 22.2 µM
MOLT-4 leukemia
  GI50: 0.48 µM
  TGI: > 100 µM
NCI/ADR-RES ovarian
  GI50: 0.285 µM
  TGI: 2.34 µM
T-47D breast
  GI50: 0.625 µM
  TGI: 4.32 µM
UACC-257 melanoma
  GI50: 0.811 µM
  TGI: 6.65 µM
HCT-116 colon
  GI50: 0.362 µM
  TGI: 4.87 µM
MDA-MB-435
  GI50: 0.439 µM
  TGI: > 100 µM
HS 578T breast
  GI50: 0.433 µM
  TGI: 12.1 µM
BT-549 breast
  GI50: 0.59 µM
  TGI: > 26 µM
LOX IMVI melanoma
  GI50: 0.485 µM
  TGI: 2.82 µM
MCF7 breast
  GI50: 0.348 µM
  TGI: > 70.2 µM
RPMI-8226 leukemia
  GI50: 0.448 µM
  TGI: > 100 µM
SF-268 CNS
  GI50: 0.519 µM
  TGI: 21.1 µM
SK-OV-3 ovarian
  GI50: 0.481 µM
  TGI: 6.81 µM
UACC-62 melanoma
  GI50: 0.713 µM
  TGI: 3.63 µM
MDA-MB-231 breast
  GI50: 0.62 µM
  TGI: 11.4 µM
NCI-H226 lung
  GI50: 1.9 µM
  TGI: > 79.2 µM
TK-10 renal
  GI50: 0.514 µM
  TGI: 4.67 µM
SF-295 CNS
  GI50: 0.406 µM
  TGI: 4.28 µM
NCI-H460 lung
  GI50: 0.351 µM
  TGI: 3.47 µM
SN12C renal
  GI50: 0.416 µM
  TGI: 25.4 µM
SK-MEL-5 melanoma
  GI50: 0.522 µM
  TGI: 3.22 µM
CCRF-CEM leukemia
  GI50: 0.396 µM
  TGI: > 43.4 µM
EKVX NSCLC
  GI50: 0.771 µM
  TGI: 6.4 µM
CAKI-1 renal
  GI50: 0.559 µM
  TGI: 3.44 µM
K-562 leukemia
  GI50: 0.403 µM
  TGI: > 39.7 µM
OVCAR-8 ovarian
  GI50: 0.377 µM
  TGI: > 22.8 µM
HOP-62 NSCLC
  GI50: 0.449 µM
  TGI: 7.91 µM
SF-539 CNS
  GI50: 0.427 µM
  TGI: 3.27 µM
PC-3 prostate
  GI50: 0.44 µM
  TGI: > 47.7 µM
A498 renal
  GI50: 1.52 µM
  TGI: 11.7 µM
NCI-H522 lung
  GI50: 0.402 µM
  TGI: 7.19 µM
NCI-H23 lung
  GI50: 0.541 µM
  TGI: 11 µM
786-0 renal
  GI50: 0.923 µM
  TGI: 5.09 µM
SNB-75 CNS
  GI50: 0.673 µM
  TGI: 5.15 µM
HL-60(TB) leukemia
  GI50: 0.376 µM
  TGI: 6.91 µM
HOP-92 NSCLC
  GI50: 0.227 µM
  TGI: 0.787 µM
SR leukemia
  GI50: 0.404 µM
  TGI: > 100 µM
HCC-2998 colon
  GI50: 0.728 µM
  TGI: > 100 µM
KM12 colon
  GI50: 0.534 µM
  TGI: > 100 µM
COLO 205 colon
  GI50: 4.79 µM
  TGI: > 100 µM
A549 NSCLC
  GI50: 0.644 µM
  TGI: > 33.3 µM
SK-MEL-2 melanoma
  GI50: 0.621 µM
  TGI: 6.09 µM
SK-MEL-28 melanoma
  GI50: 0.614 µM
  TGI: 55.2 µM
M14 melanoma
  GI50: 0.405 µM
  TGI: 2.44 µM
SW-620 colon
  GI50: 0.443 µM
  TGI: > 100 µM
OVCAR-5 ovarian
  GI50: 2.88 µM
  TGI: > 100 µM
MALME-3M melanoma
  GI50: 1.15 µM
  TGI: 6.19 µM
